# Source: ChEMBL document CHEMBL5356985, “Development of trisubstituted thiophene-3-arboxamide selenide derivatives as novel EGFR kinase inhibitors with cytotoxic activity” (RSC Med Chem, 2023)
# The source made the active and inactive calls. No cut-off for these calls is given here.
# How the values were obtained:
# [1] = test system: HCT-116; test: Anti-metastatic activity against human HCT-116 cells assessed as inhibition of cell migration by measuring wound width at 1.6 uM and measured at 48 hrs by scratch wound healing assay (Rvb=179.681 micrometer); assay type: functional
# [2] = biological target: Epidermal growth factor receptor (Homo sapiens, UniProt P00533); test: Inhibition of EGFR (unknown origin) using poly E4Y1 and ATP as substrate incubated for 60 mins by ADP-Glo kinase assay
# Epidermal growth factor receptor, sequence (P00533 whole entry): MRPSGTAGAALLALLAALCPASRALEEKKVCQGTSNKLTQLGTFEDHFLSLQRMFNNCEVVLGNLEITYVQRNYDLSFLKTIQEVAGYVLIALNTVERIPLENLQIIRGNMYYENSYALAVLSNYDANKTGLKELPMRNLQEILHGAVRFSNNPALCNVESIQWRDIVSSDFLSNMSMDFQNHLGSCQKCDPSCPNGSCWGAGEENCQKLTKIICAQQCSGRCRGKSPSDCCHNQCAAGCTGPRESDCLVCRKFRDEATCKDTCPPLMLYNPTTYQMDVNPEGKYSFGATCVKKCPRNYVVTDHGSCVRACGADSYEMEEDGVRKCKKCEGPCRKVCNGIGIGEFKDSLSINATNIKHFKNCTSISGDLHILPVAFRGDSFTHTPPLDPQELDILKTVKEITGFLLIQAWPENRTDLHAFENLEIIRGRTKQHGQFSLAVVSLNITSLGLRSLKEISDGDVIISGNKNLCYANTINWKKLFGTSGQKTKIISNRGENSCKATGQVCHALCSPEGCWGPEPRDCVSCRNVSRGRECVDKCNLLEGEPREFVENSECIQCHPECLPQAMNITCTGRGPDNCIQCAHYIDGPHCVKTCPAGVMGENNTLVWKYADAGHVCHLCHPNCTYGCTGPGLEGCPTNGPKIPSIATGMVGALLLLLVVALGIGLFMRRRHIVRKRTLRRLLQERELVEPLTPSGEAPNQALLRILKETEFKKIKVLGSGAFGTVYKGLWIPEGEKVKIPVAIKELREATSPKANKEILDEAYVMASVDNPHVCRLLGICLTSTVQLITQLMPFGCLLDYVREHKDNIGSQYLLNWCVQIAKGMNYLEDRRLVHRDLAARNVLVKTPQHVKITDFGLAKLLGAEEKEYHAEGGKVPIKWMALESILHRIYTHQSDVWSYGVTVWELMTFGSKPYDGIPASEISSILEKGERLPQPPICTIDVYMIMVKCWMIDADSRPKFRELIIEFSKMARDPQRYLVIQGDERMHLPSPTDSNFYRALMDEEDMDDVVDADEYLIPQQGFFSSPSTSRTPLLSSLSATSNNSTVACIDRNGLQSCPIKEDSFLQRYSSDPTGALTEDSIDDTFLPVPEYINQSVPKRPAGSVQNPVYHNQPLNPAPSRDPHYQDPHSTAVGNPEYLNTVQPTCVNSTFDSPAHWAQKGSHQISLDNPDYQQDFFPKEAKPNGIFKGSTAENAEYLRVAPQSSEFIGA
# [3] = test system: HCT-116; test: Induction of apoptosis in human HCT-116 cells assessed as late apoptotic cells at 1.6 uM incubated for 48 hrs by annexin V-FITC and propidium iodide staining based flow cytometry (Rvb=13.51%); assay type: functional
# [4] = test system: HCT-116; test: Anti-metastatic activity against human HCT-116 cells assessed as inhibition of cell migration by measuring wound width at 1.6 uM and measured at 0 hrs by scratch wound healing assay (Rvb=287.904 micrometer); assay type: functional
# [5] = test system: HCT-116; test: Induction of mitochondrial transmembrane potential loss in human HCT-116 cells assessed as reduction in red/green fluorescence ratio at 1.6 to 3.2 uM incubated for 48 hrs by JC-1 staining based fluorescence microscopic analysis; assay type: functional, cell-based; conditions: dose 1.6-3.2 µM
# [6] = test system: HCT-116; test: Antiproliferative activity against human HCT-116 cells assessed as cell growth inhibition at 20 uM incubated for 48 hrs by MTT assay; assay type: functional
# [7] = test system: HCT-116; test: Induction of apoptosis in human HCT-116 cells assessed as early apoptotic cells at 6.4 uM incubated for 48 hrs by annexin V-FITC and propidium iodide staining based flow cytometry (Rvb=4.44%); assay type: functional
# [8] = test system: HCT-116; test: Induction of apoptosis in human HCT-116 cells assessed as increase in necrotic cells by measuring ratio of orange-red fluorescence at 1.6 to 6.4 uM incubated for 48 hrs by Acridine orange/ethidium bromide staining based fluorescence microscopy; assay type: functional, cell-based; conditions: dose 1.6-6.4 µM
# [9] = test system: HCT-116; test: Induction of apoptosis in human HCT-116 cells assessed as necrotic cells at 3.2 uM incubated for 48 hrs by annexin V-FITC and propidium iodide staining based flow cytometry (Rvb=13.42%); assay type: functional
# [10] = test system: HCT-116; test: Antiproliferative activity against human HCT-116 cells assessed as cell growth inhibition incubated for 48 hrs by MTT assay; assay type: functional, cell-based; conditions: HCT-116, 48 h
# [11] = test system: HCT-116; test: Induction of apoptosis in human HCT-116 cells assessed as horse shoe-shaped nuclear morphological change at 1.6 to 6.4 uM incubated for 48 hrs by DAPI staining based fluorescence microscopy; assay type: functional, cell-based; conditions: dose 1.6-6.4 µM
# [12] = test system: HCT-116; test: Induction of apoptosis in human HCT-116 cells assessed as cell shrinkage at 1.6 to 6.4 uM incubated for 48 hrs by phase-contrast microscopy; assay type: functional, cell-based; conditions: dose 1.6-6.4 µM
# [13] = test system: HCT-116; test: Induction of intracellular ROS generation in human HCT-116 cells at 1.6 to 3.2 uM incubated for 48 hrs by DCFDA staining based fluorescence analysis; assay type: functional, cell-based; conditions: dose 1.6-3.2 µM
# [14] = test system: HCT-116; test: Induction of apoptosis in human HCT-116 cells assessed as cell shape alteration at 1.6 to 6.4 uM incubated for 48 hrs by phase-contrast microscopy; assay type: functional, cell-based; conditions: dose 1.6-6.4 µM
# [15] = test system: HCT-116; test: Induction of apoptosis in human HCT-116 cells assessed as necrotic cells at 1.6 uM incubated for 48 hrs by annexin V-FITC and propidium iodide staining based flow cytometry (Rvb=13.42%); assay type: functional
# [16] = test system: HCT-116; test: Anti-metastatic activity against human HCT-116 cells assessed as inhibition of cell migration by measuring wound width at 6.4 uM and measured at 0 hrs by scratch wound healing assay (Rvb=287.904 micrometer); assay type: functional
# [17] = test system: A549; test: Antiproliferative activity against human A549 cells assessed as cell growth inhibition at 20 uM incubated for 48 hrs by MTT assay; assay type: functional
# [18] = test system: HCT-116; test: Anti-metastatic activity against human HCT-116 cells assessed as inhibition of cell migration at 1.6 to 6.4 uM and measured at 48 hrs by scratch wound healing assay; assay type: functional, cell-based; conditions: dose 1.6-6.4 µM
# [19] = test system: HCT-116; test: Induction of apoptosis in human HCT-116 cells assessed as live cells at 3.2 uM incubated for 48 hrs by annexin V-FITC and propidium iodide staining based flow cytometry (Rvb=68.64%); assay type: functional
# [20] = test system: MCF7; test: Antiproliferative activity against human MCF7 cells assessed as cell growth inhibition incubated for 48 hrs by MTT assay; assay type: functional, cell-based; conditions: MCF7, 48 h
# [21] = test system: HCT-116; test: Induction of mitochondrial transmembrane potential loss in human HCT-116 cells assessed as reduction in red/green fluorescence ratio at 6.4 uM incubated for 48 hrs by JC-1 staining based fluorescence microscopic analysis; assay type: functional, cell-based
# [22] = test system: MCF7; test: Antiproliferative activity against human MCF7 cells assessed as cell growth inhibition at 20 uM incubated for 48 hrs by MTT assay; assay type: functional
# [23] = test system: HCT-116; test: Induction of apoptosis in human HCT-116 cells assessed as live cells at 6.4 uM incubated for 48 hrs by annexin V-FITC and propidium iodide staining based flow cytometry (Rvb=68.64%); assay type: functional
# [24] = test system: HCT-116; test: Induction of apoptosis in human HCT-116 cells assessed as late apoptotic cells at 6.4 uM incubated for 48 hrs by annexin V-FITC and propidium iodide staining based flow cytometry (Rvb=13.51%); assay type: functional
# [25] = test system: HCT-116; test: Anti-metastatic activity against human HCT-116 cells assessed as inhibition of cell migration by measuring wound width at 3.2 uM and measured at 0 hrs by scratch wound healing assay (Rvb=287.904 micrometer); assay type: functional
# [26] = test system: HCT-116; test: Induction of apoptosis in human HCT-116 cells assessed as early apoptotic cells at 1.6 uM incubated for 48 hrs by annexin V-FITC and propidium iodide staining based flow cytometry (Rvb=4.44%); assay type: functional
# [27] = Cytotoxicity against human HaCaT cells assessed as cell growth inhibition incubated for 48 hrs by MTT assay; assay type: toxicity, cell-based
# [28] = test system: SK-MEL-28; test: Antiproliferative activity against human SK-MEL-28 cells assessed as cell growth inhibition incubated for 48 hrs by MTT assay; assay type: functional, cell-based; conditions: SK-MEL-28, 48 h
# [29] = test system: HCT-116; test: Induction of apoptosis in human HCT-116 cells assessed as pyknotic/fragmented bright nucleus at 1.6 to 6.4 uM incubated for 48 hrs by DAPI staining based fluorescence microscopy; assay type: functional, cell-based; conditions: dose 1.6-6.4 µM
# [30] = test system: HCT-116; test: Anti-metastatic activity against human HCT-116 cells assessed as inhibition of cell migration by measuring wound width at 6.4 uM and measured at 48 hrs by scratch wound healing assay (Rvb=179.681 micrometer); assay type: functional
# [31] = test system: SK-MEL-28; test: Antiproliferative activity against human SK-MEL-28 cells assessed as cell growth inhibition at 20 uM incubated for 48 hrs by MTT assay; assay type: functional
# [32] = test system: HCT-116; test: Induction of apoptosis in human HCT-116 cells assessed as early apoptotic cells at 3.2 uM incubated for 48 hrs by annexin V-FITC and propidium iodide staining based flow cytometry (Rvb=4.44%); assay type: functional
# [33] = test system: HCT-116; test: Anti-metastatic activity against human HCT-116 cells assessed as inhibition of cell migration by measuring wound width at 3.2 uM and measured at 48 hrs by scratch wound healing assay (Rvb=179.681 micrometer); assay type: functional
# [34] = test system: HCT-116; test: Induction of apoptosis in human HCT-116 cells assessed as increase in late apoptotic cells by measuring ratio of orange-red fluorescence at 1.6 to 6.4 uM incubated for 48 hrs by Acridine orange/ethidium bromide staining based fluorescence microscopy; assay type: functional, cell-based; conditions: dose 1.6-6.4 µM
# [35] = test system: HCT-116; test: Induction of intracellular ROS generation in human HCT-116 cells at 6.4 uM incubated for 48 hrs by DCFDA staining based fluorescence analysis; assay type: functional, cell-based
# [36] = test system: HCT-116; test: Induction of apoptosis in human HCT-116 cells assessed as late apoptotic cells at 3.2 uM incubated for 48 hrs by annexin V-FITC and propidium iodide staining based flow cytometry (Rvb=13.51%); assay type: functional
# [37] = test system: HCT-116; test: Induction of apoptosis in human HCT-116 cells assessed as necrotic cells at 6.4 uM incubated for 48 hrs by annexin V-FITC and propidium iodide staining based flow cytometry (Rvb=13.42%); assay type: functional
# [38] = test system: HCT-116; test: Induction of apoptosis in human HCT-116 cells assessed as reduction in number of viable cells at 1.6 to 6.4 uM incubated for 48 hrs by phase-contrast microscopy; assay type: functional, cell-based; conditions: dose 1.6-6.4 µM
# [39] = test system: HCT-116; test: Induction of apoptosis in human HCT-116 cells assessed as live cells at 1.6 uM incubated for 48 hrs by annexin V-FITC and propidium iodide staining based flow cytometry (Rvb=68.64%); assay type: functional
# [40] = test system: HCT-116; test: Induction of apoptosis in human HCT-116 cells assessed as chromatin condensation at 1.6 to 6.4 uM incubated for 48 hrs by DAPI staining based fluorescence microscopy; assay type: functional, cell-based; conditions: dose 1.6-6.4 µM
# [41] = test system: A549; test: Antiproliferative activity against human A549 cells assessed as cell growth inhibition incubated for 48 hrs by MTT assay; assay type: functional, cell-based; conditions: A549, 48 h
smiles,measurement,setting,value
Cc1sc([Se]c2sc(C)c(-c3cccc(Br)c3)c2C(=O)NC(CO)C(=O)N2CCCC2)c(C(=O)NC(CO)C(=O)N2CCCC2)c1-c1cccc(Br)c1 (stereo unspecified),Activity,[1],235.37 um
same,IC50,[2],0.0944 µM
same,Activity,[3],27.98%
same,Activity,[4],257.433 um
same,Activity,[5],Dose-Dependent Effect
same,inhibition at 20 µM,[6],75%
same,Activity,[7],3.04%
same,Activity,[8],Dose-Dependent Effect
same,Activity,[9],12.61%
same,IC50,[10],3.2 µM
same,Activity,[11],Active
same,Activity,[12],Dose-Dependent Effect
same,Activity,[13],Dose-Dependent Effect
same,Activity,[14],Dose-Dependent Effect
same,Activity,[15],10.1%
same,Activity,[16],275.298 um
same,inhibition at 20 µM,[17],90%
same,Activity,[18],Dose-Dependent Effect
same,Activity,[19],32.12%
same,IC50,[20],8.06 µM
same,Activity,[21],Active
same,inhibition at 20 µM,[22],90%
same,Activity,[23],2.56%
same,Activity,[24],88.93%
same,Activity,[25],296.312 um
same,Activity,[26],8.97%
same,IC50 at 48 h,[27],24 µM
same,IC50,[28],8.81 µM
same,Activity,[29],Active
same,Activity,[30],267.94 um
same,inhibition at 20 µM,[31],78%
same,Activity,[32],11.75%
same,Activity,[33],276.354 um
same,Activity,[34],Dose-Dependent Effect
same,Activity,[35],Active
same,Activity,[36],43.71%
same,Activity,[37],5.47%
same,Activity,[38],Dose-Dependent Effect
same,Activity,[39],52.95%
same,Activity,[40],Active
same,IC50,[41],7.86 µM
